# PMC10288505, “Photoswitchable Calixarene Activators for Controlled Peptide Transport across Lipid Membranes” (Journal of the American Chemical Society, 2023)
# Experiments:
# R3 = experiment: Indicator displacement assay with host:LCG reporter pair, guest R3; type: binding; settings: association constant, competitive dye displacement with LCG, 5 mM phosphate buffer pH 7.3, mean ± SD of triplicate
# Text: (§1) The binding affinity of the anionic calixarene activators toward cationic peptides was investigated using a small library of highly hydrophilic oligoarginines, from 3 to 8 residues. These peptides are not able to spontaneously transverse zwitterionic artificial membranes in vesicle assays, which allows the accurate evaluation of the calixarenes 1 and 2 as counterion activators without interferences from the transport of the peptide alone.[43]−[45] First, the formation of host–guest complexes between 1/2 and the selected peptides was verified by indicator displacement assays using lucigenin (LCG) as the fluorescent indicator.[46] As previously reported for other sulfonatocalixarene derivatives,[46] the formation of host–guest binding pairs between calixarenes 1/2 in the E- and Z-forms and LCG results in significant static fluorescence quenching (see Figure 2A and Figures S26 and S27). Quantitative analysis of the fluorescence titration data using a 1:1 host:guest binding model allows the determination of the respective binding constants (K) reported in Table 1. As can be observed, both 1/2 display high affinity for the LCG dye, on the 10^7 M^–1 range, which seems to be independent of the nature and conformation of the azobenzene arm. […] The host:LCG binding pairs were then employed in the above-mentioned indicator displacement assays to investigate the binding affinity of oligoarginines toward 1 and 2 (see Figure 2B and Figures S29–S33).
# The binding affinities of the counterion activators and peptide complexes were analyzed by indicator displacement assays. The fluorescent dye chosen for these experiments was lucigenin (LCG) due to its complex with the receptor SC4 being well characterized and due to the high variation of emission between its bound and free form. Firstly, the affinity for LCG was calculated for each of the activators, by titrations followed by fluorescence spectroscopy leading to almost full quenching of the emission. For the competitive assays, a concentration of LCG and activator was chosen in order to have approximately 90% of complexed dye and that mixture was then titrated with each of the peptides, leading to the regaining of emission when LCG was release from the complex.
# Figure S26 - Fluorescence titration of the lucigenin dye with increasing concentrations of A) E-1 and B) Z–1 in water (5 mM phosphate buffer pH 7.3). LCG concentration was fixed 0.2 µM in all experiments, except for the first E-1 titrations were [LCG]
# (1 picture or pasted object on this page, not shown here)
# Figure S29 - Indicator displacement titration of the several oligoarginines A) R3 B) R4 C) R6 and D) R8, using SC4:LCG as the reporter pair (5 mM phosphate buffer pH 7.3). LCG and SC4 concentrations were fixed at A) 0.22 and 0.50 µM, for all three replicates, B) 0.22 and 4.7 µM for the first titration and 0.22 and 4.3 µM for the remaining two replicates, C) 0.22 and 0.45 µM and 1.1 and 0.85 µM and D) 0.28 and 0.43 µM and 1.1 and 0.85 µM, respectively, from left to right.
# Figure S30 - Indicator displacement titration of the several oligoarginines A) R3 B) R4 C) R6 and D) R8, using E-1:LCG as the reporter pair (5 mM phosphate buffer pH 7.3) LCG and E-1 concentrations were fixed at A) 0.11 and 0.25 µM, for all three replicates, B) 0.22 and 0.5 µM, for the first two titrations and 0.22 and 0.23 µM for the remaining replicate, C) 4.0 and 3.8 µM and 0.22 and 0.5 µM, D) 4 and 3 µM and 0.22 and 0.5 µM, respectively, from left to right. […]
# hexaarginine (R6) = experiment: Indicator displacement assay with host:LCG reporter pair, guest R6; type: binding; settings: association constant, competitive dye displacement with LCG, 5 mM phosphate buffer pH 7.3; only the lower limit can be estimated
# Text: as §1
# Figure 2 (A) Fluorescence titration of the lucigenin dye (LCG, 1.5 μM) with increasing concentrations of E-2 in water (5 mM phosphate buffer, pH 7.3). […]
# The binding affinities of the counterion activators and peptide complexes were analyzed by indicator displacement assays. […] Firstly, the affinity for LCG was calculated for each of the activators, by titrations followed by fluorescence spectroscopy leading to almost full quenching of the emission. […]
# Figure S26 - Fluorescence titration of the lucigenin dye with increasing concentrations of A) E-1 and B) Z–1 in water (5 mM phosphate buffer pH 7.3). […]
structure (smiles),measurement,setting,value
O=S(=O)([O-])c1cc2c(O)c(c1)Cc1cc(S(=O)(=O)[O-])cc(c1O)Cc1cc(S(=O)(=O)[O-])cc(c1OCCCCCCOc1ccc(/N=N\c3ccccc3)cc1)Cc1cc(S(=O)(=O)[O-])cc(c1O)C2.[Li+].[Li+].[Li+].[Li+] [Z-1],Apparent affinity constant K for R3,R3,(2.4 ± 0.6) × 10^6 M^–1
CCCCc1ccc(/N=N/c2ccc(OCCCOc3c4cc(S(=O)(=O)[O-])cc3Cc3cc(S(=O)(=O)[O-])cc(c3O)Cc3cc(S(=O)(=O)[O-])cc(c3O)Cc3cc(S(=O)(=O)[O-])cc(c3O)C4)cc2)cc1.[Li+].[Li+].[Li+].[Li+] [E-2],Apparent affinity constant K for R6,hexaarginine (R6),>5 × 10^8 ^a M^–1
same,Apparent affinity constant K for R3,R3,(4.1 ± 0.2) × 10^6 M^–1
CCCCc1ccc(/N=N\c2ccc(OCCCOc3c4cc(S(=O)(=O)[O-])cc3Cc3cc(S(=O)(=O)[O-])cc(c3O)Cc3cc(S(=O)(=O)[O-])cc(c3O)Cc3cc(S(=O)(=O)[O-])cc(c3O)C4)cc2)cc1.[Li+].[Li+].[Li+].[Li+] [Z-2],Apparent affinity constant K for R3,R3,(3.6 ± 0.3) × 10^6 M^–1
O=S(=O)([O-])c1cc2c(O)c(c1)Cc1cc(S(=O)(=O)[O-])cc(c1O)Cc1cc(S(=O)(=O)[O-])cc(c1OCCCCCCOc1ccc(/N=N/c3ccccc3)cc1)Cc1cc(S(=O)(=O)[O-])cc(c1O)C2.[Li+].[Li+].[Li+].[Li+] [E-1],Apparent affinity constant K for R6,hexaarginine (R6),>5 × 10^8 ^a M^–1
same,Apparent affinity constant K for R3,R3,(2.6 ± 0.8) × 10^6 M^–1
